# Assay results reported in patent publication US9512114B2, “Substituted aminopyrimidine compounds and methods of use” (Calitor Sciences, LLC, priority 2013, dated 2016).
# What was measured:
# [1] = Compound stability in rat liver microsomes; assay type: in vitro ADME; settings: pH 7.4; for CLint scaled at 5 μM: liver microsomes, in vivo CLint extrapolated from rat liver microsome incubation; for half-life at 5 μM: rat liver microsomes 0.5 mg protein/mL, compound 5 μM, NADPH 1.0 mM, 37° C., read-out: Rat T1/2
# Outline: (§1)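 Human or rat liver microsomes (0.5 mg protein/mL) incubated with compound (5 μM) and NADPH (1.0 mM) in 100 mM potassium phosphate, pH 7.4, 0.05% DMSO, 37° C, sampled 0–60 min and quenched with cold acetonitrile. Remaining compound quantified by LC/MS/MS as % of time zero; CLint extrapolated.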
# PI3K (p110α/p85α) (h) = PI3K (p110α/p85α) (h) (Homo sapiens (Human), UniProt P42336); experiment: PI3K (p110α/p85α) (h) non-radioactive HTRF kinase assay; assay type: biochemical; settings: performed at Millipore UK Ltd
# PI3K (p110α/p85α) (h), sequence (P42336 whole entry): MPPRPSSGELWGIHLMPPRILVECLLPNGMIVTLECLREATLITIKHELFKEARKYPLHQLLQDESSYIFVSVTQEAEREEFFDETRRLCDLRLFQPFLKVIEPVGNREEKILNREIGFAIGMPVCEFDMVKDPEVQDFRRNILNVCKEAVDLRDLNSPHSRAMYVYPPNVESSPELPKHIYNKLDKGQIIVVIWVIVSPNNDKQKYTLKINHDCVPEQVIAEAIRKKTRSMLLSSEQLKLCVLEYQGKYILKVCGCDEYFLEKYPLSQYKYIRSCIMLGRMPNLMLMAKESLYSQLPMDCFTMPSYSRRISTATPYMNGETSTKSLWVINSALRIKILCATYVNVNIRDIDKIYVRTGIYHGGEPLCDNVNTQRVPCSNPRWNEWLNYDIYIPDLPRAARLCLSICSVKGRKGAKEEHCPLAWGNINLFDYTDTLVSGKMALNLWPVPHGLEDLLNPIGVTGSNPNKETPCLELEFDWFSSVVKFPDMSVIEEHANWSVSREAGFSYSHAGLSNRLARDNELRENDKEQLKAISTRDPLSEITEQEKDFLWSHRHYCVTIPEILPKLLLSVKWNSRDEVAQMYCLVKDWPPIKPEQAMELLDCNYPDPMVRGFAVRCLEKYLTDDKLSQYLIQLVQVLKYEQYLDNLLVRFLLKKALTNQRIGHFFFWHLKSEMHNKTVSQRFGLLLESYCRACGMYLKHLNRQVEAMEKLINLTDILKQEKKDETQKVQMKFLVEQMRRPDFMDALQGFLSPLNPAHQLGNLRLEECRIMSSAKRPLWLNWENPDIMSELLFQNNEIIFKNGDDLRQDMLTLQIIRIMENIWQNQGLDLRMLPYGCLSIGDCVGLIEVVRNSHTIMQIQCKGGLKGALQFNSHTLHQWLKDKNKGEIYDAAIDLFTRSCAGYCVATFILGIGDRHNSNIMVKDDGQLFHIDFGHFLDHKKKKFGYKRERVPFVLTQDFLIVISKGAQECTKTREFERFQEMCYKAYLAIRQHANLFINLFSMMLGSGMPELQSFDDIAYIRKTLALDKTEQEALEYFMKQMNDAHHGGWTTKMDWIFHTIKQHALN
# PI3K (p110α/p85α) (h), sequence (P27986 whole entry partner): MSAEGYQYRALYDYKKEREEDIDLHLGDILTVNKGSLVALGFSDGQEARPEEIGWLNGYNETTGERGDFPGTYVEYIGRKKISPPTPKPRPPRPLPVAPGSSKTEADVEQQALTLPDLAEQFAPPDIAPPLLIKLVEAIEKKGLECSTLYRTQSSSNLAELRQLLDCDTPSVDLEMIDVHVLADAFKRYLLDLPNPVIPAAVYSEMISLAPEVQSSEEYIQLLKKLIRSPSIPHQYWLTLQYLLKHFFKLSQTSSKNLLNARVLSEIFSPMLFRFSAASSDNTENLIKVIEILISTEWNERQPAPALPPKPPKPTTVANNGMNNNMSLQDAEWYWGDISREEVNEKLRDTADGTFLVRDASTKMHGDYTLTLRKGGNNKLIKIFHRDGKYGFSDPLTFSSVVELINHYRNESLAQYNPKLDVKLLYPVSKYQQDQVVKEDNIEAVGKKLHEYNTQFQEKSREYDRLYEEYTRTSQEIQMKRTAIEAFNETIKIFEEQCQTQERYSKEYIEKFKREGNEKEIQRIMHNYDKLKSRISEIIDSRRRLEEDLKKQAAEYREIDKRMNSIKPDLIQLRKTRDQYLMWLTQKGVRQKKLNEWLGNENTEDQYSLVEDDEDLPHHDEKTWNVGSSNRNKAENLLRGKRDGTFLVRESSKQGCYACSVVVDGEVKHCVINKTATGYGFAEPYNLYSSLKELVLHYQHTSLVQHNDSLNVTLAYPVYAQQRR
# Experimental: (§2) The above assay procedure can be used to determine the IC50 for inhibition and/or the inhibition constant, Ki.
# PI3K (p110α/p85α) (h) [Non-Radioactive Assay]
# (§3) PI3K (p110α/p85α) (h) is incubated in assay buffer containing 10 μM phosphatidylinositol 4,5-bisphosphate and MgATP (concentration as required). The reaction is initiated by the addition of the ATP solution. After incubation for 30 minutes at room temperature, the reaction is stopped by the addition of stop solution containing EDTA and biotinylated phosphatidylinositol-3,4,5-trisphosphate. Finally, detection buffer is added, which contains europium-labelled anti-GST monoclonal antibody, GST-tagged GRP1 PH domain and streptavidin allophycocyanin. The plate is then read in timeresolved fluorescence mode and the homogenous time-resolved fluorescence (HTRF) signal is determined according to the formula HTRF=10000×(Em665 nm/Em620 nm).
# (§4) The kinase assays described herein were performed at Millipore UK Ltd, Dundee Technology Park, Dundee DD2 1SW, UK.
# [2] = Compound stability in human liver microsomes; assay type: in vitro ADME; settings: pH 7.4; for CLint scaled at 5 μM: liver microsomes, in vivo CLint extrapolated from human liver microsome incubation; for half-life at 5 μM: human liver microsomes 0.5 mg protein/mL, compound 5 μM, NADPH 1.0 mM, 37° C., read-out: Human T1/2
# Outline: as §1
# PI3K (p120γ) (h) = PI3K (p120γ) (h) (Homo sapiens (Human), UniProt P48736); experiment: PI3K (p120γ) (h) non-radioactive HTRF kinase assay; assay type: biochemical; settings: performed at Millipore UK Ltd
# PI3K (p120γ) (h), sequence (P48736 whole entry): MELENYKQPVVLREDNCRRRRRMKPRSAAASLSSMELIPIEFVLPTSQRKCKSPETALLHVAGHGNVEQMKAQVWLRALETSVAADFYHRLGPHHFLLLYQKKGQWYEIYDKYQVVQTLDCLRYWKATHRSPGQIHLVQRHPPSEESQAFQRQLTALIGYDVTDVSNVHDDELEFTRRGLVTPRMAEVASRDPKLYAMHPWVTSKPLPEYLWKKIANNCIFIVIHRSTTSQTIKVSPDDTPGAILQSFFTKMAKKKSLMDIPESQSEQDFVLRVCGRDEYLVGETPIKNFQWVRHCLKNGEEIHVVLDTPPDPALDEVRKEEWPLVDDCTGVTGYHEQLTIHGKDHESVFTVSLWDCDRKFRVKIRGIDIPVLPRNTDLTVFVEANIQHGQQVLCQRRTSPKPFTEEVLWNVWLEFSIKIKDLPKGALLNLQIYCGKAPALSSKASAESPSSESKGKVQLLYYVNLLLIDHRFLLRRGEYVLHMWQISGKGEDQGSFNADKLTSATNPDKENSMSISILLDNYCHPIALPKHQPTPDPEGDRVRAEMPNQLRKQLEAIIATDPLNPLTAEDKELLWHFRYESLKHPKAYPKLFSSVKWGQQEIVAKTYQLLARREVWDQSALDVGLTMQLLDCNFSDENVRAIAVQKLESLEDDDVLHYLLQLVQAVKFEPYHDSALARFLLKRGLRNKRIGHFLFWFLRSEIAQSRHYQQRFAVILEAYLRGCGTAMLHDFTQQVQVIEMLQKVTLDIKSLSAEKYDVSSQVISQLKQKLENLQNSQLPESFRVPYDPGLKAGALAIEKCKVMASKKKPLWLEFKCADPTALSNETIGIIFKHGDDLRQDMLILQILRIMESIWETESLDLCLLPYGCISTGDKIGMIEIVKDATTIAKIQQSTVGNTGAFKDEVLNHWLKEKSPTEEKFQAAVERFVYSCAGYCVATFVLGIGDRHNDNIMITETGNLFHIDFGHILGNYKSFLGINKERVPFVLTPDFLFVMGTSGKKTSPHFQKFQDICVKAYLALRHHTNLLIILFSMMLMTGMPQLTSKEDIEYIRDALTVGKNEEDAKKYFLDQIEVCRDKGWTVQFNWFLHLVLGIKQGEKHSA
# Experimental: as §2
# PI3K (p120γ) (h) [Non-Radioactive Assay]
# as §3, with “(p120γ)” for “(p110α/p85α)”, “phosphatidylinositol-4, 5-bisphosphate” for “phosphatidylinositol 4,5-bisphosphate”, “MgATP mix.” for “ATP solution.”, “streptavidin-allophycocyanin.” for “streptavidin allophycocyanin.”
# as §4
# PI3K (p110β/p85α) (h) = PI3K (p110β/p85α) (h) (Homo sapiens (Human), UniProt P42338); experiment: PI3K (p110β/p85α) (h) non-radioactive HTRF kinase assay; assay type: biochemical; settings: performed at Millipore UK Ltd
# PI3K (p110β/p85α) (h), sequence (P42338 whole entry): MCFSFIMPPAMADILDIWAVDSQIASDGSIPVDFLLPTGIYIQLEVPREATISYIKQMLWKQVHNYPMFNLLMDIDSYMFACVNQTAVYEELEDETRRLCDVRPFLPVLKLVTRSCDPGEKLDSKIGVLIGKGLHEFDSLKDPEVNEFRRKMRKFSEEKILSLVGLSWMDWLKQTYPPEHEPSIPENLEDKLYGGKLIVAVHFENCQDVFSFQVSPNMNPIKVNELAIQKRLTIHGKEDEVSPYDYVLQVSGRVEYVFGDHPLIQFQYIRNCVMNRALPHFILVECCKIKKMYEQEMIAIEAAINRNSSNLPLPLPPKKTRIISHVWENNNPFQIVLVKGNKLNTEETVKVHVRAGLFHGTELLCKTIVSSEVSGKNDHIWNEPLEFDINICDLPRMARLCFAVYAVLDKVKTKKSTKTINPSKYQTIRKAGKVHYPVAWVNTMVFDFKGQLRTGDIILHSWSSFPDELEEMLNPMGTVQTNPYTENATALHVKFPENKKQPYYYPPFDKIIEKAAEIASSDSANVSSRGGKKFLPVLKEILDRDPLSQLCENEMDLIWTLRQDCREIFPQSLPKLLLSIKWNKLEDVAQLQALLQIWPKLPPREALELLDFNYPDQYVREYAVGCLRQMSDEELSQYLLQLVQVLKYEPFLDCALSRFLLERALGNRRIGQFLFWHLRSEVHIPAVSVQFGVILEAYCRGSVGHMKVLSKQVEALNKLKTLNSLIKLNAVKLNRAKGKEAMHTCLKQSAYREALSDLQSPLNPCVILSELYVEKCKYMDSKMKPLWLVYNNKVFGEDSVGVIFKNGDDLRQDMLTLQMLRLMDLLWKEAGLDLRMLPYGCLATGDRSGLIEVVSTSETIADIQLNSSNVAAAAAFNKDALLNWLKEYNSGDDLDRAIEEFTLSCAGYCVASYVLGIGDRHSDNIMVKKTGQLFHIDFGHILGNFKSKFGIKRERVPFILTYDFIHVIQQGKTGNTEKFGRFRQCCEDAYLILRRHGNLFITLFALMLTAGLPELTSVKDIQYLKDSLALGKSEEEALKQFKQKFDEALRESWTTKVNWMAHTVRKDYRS
# PI3K (p110β/p85α) (h), sequence (P27986 whole entry partner): as the sequence (P27986 whole entry partner) above
# Experimental: as §2
# PI3K (p110β/p85α) (h) [Non-Radioactive Assay]
# as §3, with “([…])” for “(p110α/p85α)”, “phosphatidylinositol-4, 5-bisphosphate” for “phosphatidylinositol 4,5-bisphosphate”, “MgATP mix.” for “ATP solution.”, “streptavidin-allophycocyanin.” for “streptavidin allophycocyanin.”
# as §4
SMILES,CLint scaled at 5 μM [1] [mL/min/kg],half-life at 5 μM [1] [min],IC50 (PI3K (p110α/p85α) (h)) [nM],CLint scaled at 5 μM [2] [mL/min/kg],half-life at 5 μM [2] [min],IC50 (PI3K (p120γ) (h)) [nM],IC50 (PI3K (p110β/p85α) (h)) [nM]
"Cc1noc(-c2c(N)ncnc2N[C@@H](C)c2cc3cccc(Cl)c3c(=O)n2-c2ccccc2)n1 [Ex. 8, (S)-3-(1-((6-amino-5-(3-methyl-1,2,4-oxadiazol-5-yl)pyrimidin-4-yl)amino)ethyl)-8-chloro-2-phenylisoquinolin-1(2H)-one]",229,10.9,276,196,8.88,74,–
"Cc1nnc(-c2c(N)ncnc2N[C@@H](C)c2cc3cccc(Cl)c3c(=O)n2-c2ccccc2)o1 [Ex. 9, (S)-3-(1-((6-amino-5-(5-methyl-1,3,4-oxadiazol-2-yl)pyrimidin-4-yl)amino)ethyl)-8-chloro-2-phenylisoquinolin-1(2H)-one]",185,13.4,2680,83.7,20.8,255,–

# More lines, now with the values ahead:
CLint scaled at 5 μM [1] [mL/min/kg],half-life at 5 μM [1] [min],IC50 (PI3K (p110α/p85α) (h)) [nM],CLint scaled at 5 μM [2] [mL/min/kg],half-life at 5 μM [2] [min],IC50 (PI3K (p120γ) (h)) [nM],IC50 (PI3K (p110β/p85α) (h)) [nM],SMILES
102,24.4,1470,85.3,20.4,387,30,"Cc1nnc(-c2c(N)ncnc2N[C@@H](C)c2cc3cccc(Cl)c3c(=O)n2C2CC2)o1 [Ex. 4, (S)-3-(1-((6-amino-5-(5-methyl-1,3,4-oxadiazol-2-yl)pyrimidin-4-yl)amino)ethyl)-8-chloro-2-cyclopropylisoquinolin-1(2H)-one]"
14.5,171,882,28.1,61.9,325,900,"Cc1nnc(-c2c(N)ncnc2N[C@@H](C)c2cc3cccc(-c4cnn(C)c4)c3c(=O)n2C2CC2)o1 [Ex. 25, (S)-3-(1-((6-amino-5-(5-methyl-1,3,4-oxadiazol-2-yl)pyrimidin-4-yl)amino)ethyl)-2-cyclopropyl-8-(1-methyl-1H-pyrazol-4-yl)isoquinolin-1 (2H)-one]"
22.3,112,132,51.8,33.6,65,176,"Cc1noc(-c2c(N)ncnc2N[C@@H](C)c2cc3cccc(-c4cnn(C)c4)c3c(=O)n2C2CC2)n1 [Ex. 26, (S)-3-(1-((6-amino-5-(3-methyl-1,2,4-oxadiazol-5-yl)pyrimidin-4-yl)amino)ethyl)-2-cyclopropyl-8-(1-methyl-1H-pyrazol-4-yl)isoquinolin-1 (2H)-one]"
